For the test, the target named is T1, Human TRPC6 (Homo sapiens, UniProt Q9Y210).
T1 construct: expressed in transfected cells
T1 sequence (Q9Y210 1-931): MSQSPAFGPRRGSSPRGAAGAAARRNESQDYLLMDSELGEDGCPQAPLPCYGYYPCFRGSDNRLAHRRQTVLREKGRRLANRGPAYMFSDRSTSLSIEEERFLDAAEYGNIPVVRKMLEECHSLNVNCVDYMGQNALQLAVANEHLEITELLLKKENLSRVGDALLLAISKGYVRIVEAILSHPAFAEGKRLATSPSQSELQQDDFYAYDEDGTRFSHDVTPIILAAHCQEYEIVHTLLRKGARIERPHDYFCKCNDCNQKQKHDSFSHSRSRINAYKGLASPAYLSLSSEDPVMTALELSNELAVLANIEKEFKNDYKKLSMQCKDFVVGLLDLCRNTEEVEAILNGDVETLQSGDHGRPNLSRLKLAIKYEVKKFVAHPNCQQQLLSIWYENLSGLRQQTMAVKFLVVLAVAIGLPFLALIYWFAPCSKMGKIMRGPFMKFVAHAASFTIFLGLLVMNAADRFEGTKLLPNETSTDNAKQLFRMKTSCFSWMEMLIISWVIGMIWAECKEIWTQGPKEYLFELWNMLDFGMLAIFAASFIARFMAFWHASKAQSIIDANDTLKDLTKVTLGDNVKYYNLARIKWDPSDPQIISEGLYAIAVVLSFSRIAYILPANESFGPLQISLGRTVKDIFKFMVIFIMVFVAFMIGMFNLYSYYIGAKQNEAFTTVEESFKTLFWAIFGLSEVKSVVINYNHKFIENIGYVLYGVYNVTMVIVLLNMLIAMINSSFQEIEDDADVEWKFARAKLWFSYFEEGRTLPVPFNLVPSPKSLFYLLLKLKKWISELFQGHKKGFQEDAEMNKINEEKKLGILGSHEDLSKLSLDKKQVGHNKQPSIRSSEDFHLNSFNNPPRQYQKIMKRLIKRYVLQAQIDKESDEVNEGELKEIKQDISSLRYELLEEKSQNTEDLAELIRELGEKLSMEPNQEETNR
Description: Evaluation of TRPC6 channel inhibitory activity (1), FLIPR Calcium 5 Assay Kit, OAG stimulation (Compound Nos. 1-1293). Format: cell-based. As to conditions: for IC50: Human TRPC6 stably-expressing cells, OAG 30 μM, FLIPR Calcium 5 Assay Kit, read-out: Inhibitory activity (pIC50 class) (converted). The gist of the method:
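Readout is pIC50 from four-parameter logistic fitting of inhibition of the OAG-evoked (30 μM final) fluorescence calcium signal. Human TRPC6 stable cells are dye-loaded with probenecid, and compound is applied 20 min ahead of agonist.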

Experimental findings from patent US20230167073A1 (Teijin Pharma Limited, priority 2020, published 2023) are described below.

pIC50: −log10 of the molar value. Like-named read-outs stand apart in the source and are kept apart here. Some results are limits rather than exact numbers.

Consider `N#Cc1ccc(-c2ncc(CCN)cn2)c(Oc2nnc(N3CCCC3)s2)c1` [compound 726, 4-[5-(2-aminoethyl)pyrimidin-2-yl]-3-[(5-pyrrolidin-1-yl-1,3,4-thiadiazol-2-yl)oxy]benzonitrile], for which the IC50 was 10 to 1000 nM.

As to `CN(C)c1nnc(Oc2cc(C#N)ccc2-c2ncc(CCN)cn2)s1` [compound 727, 4-[5-(2-aminoethyl)pyrimidin-2-yl]-3-[[5-(dimethylamino)-1,3,4-thiadiazol-2-yl]oxy]benzonitrile], the IC50 was 10 to 1000 nM.

Turning to `N#Cc1ccc(-c2ncc(CCN)cn2)c(Oc2nnc(C3CC3)s2)c1` [compound 728, 4-[5-(2-aminoethyl)pyrimidin-2-yl]-3-[(5-cyclopropyl-1,3,4-thiadiazol-2-yl)oxy]benzonitrile], the IC50 is 10 to 1000 nM.

As to `N#Cc1ccc(-c2ncc(CCN)cn2)c(Oc2nnc(-c3cccnc3)s2)c1` [compound 729, 4-[5-(2-aminoethyl)pyrimidin-2-yl]-3-[(5-pyridin-3-yl-1,3,4-thiadiazol-2-yl)oxy]benzonitrile], the IC50 was 10 to 1000 nM.

For the compound `N#Cc1ccc(-c2ncc(CCN)cn2)c(Oc2nnc(-c3ccncc3)s2)c1` [compound 730, 4-[5-(2-aminoethyl)pyrimidin-2-yl]-3-[(5-pyridin-4-yl-1,3,4-thiadiazol-2-yl)oxy]benzonitrile], the IC50 is 10 to 1000 nM.

Regarding `Cn1nc(C2CC2)cc1Oc1cc(C#N)ccc1-c1cc(CN)cn2cnnc12` [compound 731, 4-[6-(aminomethyl)-[1,2,4]triazolo[4,3-a]pyridin-8-yl]-3-(5-cyclopropyl-2-methylpyrazol-3-yl)oxybenzonitrile], the IC50 is greater than 1000 nM.

As to `Cn1nc(-c2ccccn2)cc1Oc1cc(C#N)ccc1-c1cc(CN)cn2cnnc12` [compound 732, 4-[6-(aminomethyl)-[1,2,4]triazolo[4,3-a]pyridin-8-yl]-3-(2-methyl-5-pyridin-2-ylpyrazol-3-yl)oxybenzonitrile], the IC50 is 10 to 1000 nM.

For the compound `Cc1cc(Oc2cc(C#N)ccc2-c2cc(CN)cn3cnnc23)cc(N2CCOCC2)n1` [compound 733, 4-[6-(aminomethyl)-[1,2,4]triazolo[4,3-a]pyridin-8-yl]-3-(2-methyl-6-morpholin-4-ylpyridin-4-yl)oxybenzonitrile], the IC50 was greater than 1000 nM.

As to `CCC(N)c1cnc(-c2ccc(C#N)cc2Oc2cc(-c3ccccn3)nn2C)nc1` (stereo not shown) [compound 734, 4-[5-(1-aminopropyl)pyrimidin-2-yl]-3-(2-methyl-5-pyridin-2-ylpyrazol-3-yl)oxybenzonitrile], the IC50 is less than 10 nM.

`CCC(N)c1cnc(-c2ccc(C#N)cc2Oc2cc(C)nc(N3CCOCC3)c2)nc1` (stereo not shown) [compound 735, 4-[5-(1-aminopropyl)pyrimidin-2-yl]-3-(2-methyl-6-morpholin-4-ylpyridin-4-yl)oxybenzonitrile]: the IC50 is less than 10 nM.

With `Cn1nc(C2CC2)cc1Oc1cc(C#N)ccc1-c1cc(CN)cn2ccnc12` [compound 736, 4-[6-(aminomethyl)imidazo[1,2-a]pyridin-8-yl]-3-(5-cyclopropyl-2-methylpyrazol-3-yl)oxybenzonitrile], the IC50 is 10 to 1000 nM.

For `Cn1nc(-c2ccccn2)cc1Oc1cc(C#N)ccc1-c1cc(CN)cn2ccnc12` [compound 737, 4-[6-(aminomethyl)imidazo[1,2-a]pyridin-8-yl]-3-(2-methyl-5-pyridin-2-ylpyrazol-3-yl)oxybenzonitrile], the IC50 was less than 10 nM.

With `N#Cc1ccc(-c2ccc(CC3(N)COC3)cn2)c(Oc2cc(N3CCCC3)ncc2C#N)c1` [compound 738, 4-[2-[5-[(3-aminooxetan-3-yl)methyl]pyridin-2-yl]-5-cyanophenoxy]-6-pyrrolidin-1-ylpyridine-3-carbonitrile], the IC50 is 10 to 1000 nM.

As to `N#Cc1ccc(-c2ncc(CCN)cn2)c(Oc2cc(N3CCCC3)ncc2C#N)c1` [compound 739, 4-[2-[5-(2-aminoethyl)pyrimidin-2-yl]-5-cyanophenoxy]-6-pyrrolidin-1-ylpyridine-3-carbonitrile], the IC50 was 10 to 1000 nM.

Regarding `N#Cc1ccc(-c2ncc(CN)cn2)c(Oc2cc(N3CCCC3)ncc2C#N)c1` [compound 740, 4-[2-[5-(aminomethyl)pyrimidin-2-yl]-5-cyanophenoxy]-6-pyrrolidin-1-ylpyridine-3-carbonitrile], the IC50 is greater than 1000 nM.

In the case of `Cn1nc(N2CCCC2)cc1Oc1cc(C#N)ccc1-c1ccc(CC2(N)COC2)cn1` [compound 741, 4-[5-[(3-aminooxetan-3-yl)methyl]pyridin-2-yl]-3-(2-methyl-5-pyrrolidin-1-ylpyrazol-3-yl)oxybenzonitrile], the IC50 is 10 to 1000 nM.

On to `Cn1nc(N2CCCCC2)cc1Oc1cc(C#N)ccc1-c1ccc(CC2(N)COC2)cn1` [compound 742, 4-[5-[(3-aminooxetan-3-yl)methyl]pyridin-2-yl]-3-(2-methyl-5-piperidin-1-ylpyrazol-3-yl)oxybenzonitrile], for which the IC50 was less than 10 nM.

Regarding `CN(C)c1cc(Oc2cc(C#N)ccc2-c2ccc(CC3(N)COC3)cn2)n(C)n1` [compound 743, 4-[5-[(3-aminooxetan-3-yl)methyl]pyridin-2-yl]-3-[5-(dimethylamino)-2-methylpyrazol-3-yl]oxybenzonitrile], the IC50 was less than 10 nM.

Consider `Cc1nc(Oc2cc(C#N)ccc2-n2cc3c(n2)CCNC3)cc(N2CCCCC2)n1` [compound 744, 3-(2-methyl-6-piperidin-1-ylpyrimidin-4-yl)oxy-4-(4,5,6,7-tetrahydropyrazolo[4,3-c]pyridin-2-yl)benzonitrile], for which the IC50 is 10 to 1000 nM.

On to `Cc1nc(Oc2cc(C#N)ccc2-n2ncc3c2CCNC3)cc(N2CCCCC2)n1` [compound 745, 3-(2-methyl-6-piperidin-1-ylpyrimidin-4-yl)oxy-4-(4,5,6,7-tetrahydropyrazolo[4,3-c]pyridin-1-yl)benzonitrile], for which the IC50 was greater than 1000 nM.

On to `Cc1nc(Oc2cc(C#N)ccc2-n2cc3c(n2)CNCC3)cc(N2CCCCC2)n1` [compound 746, 3-(2-methyl-6-piperidin-1-ylpyrimidin-4-yl)oxy-4-(4,5,6,7-tetrahydropyrazolo[3,4-c]pyridin-2-yl)benzonitrile], for which the IC50 was greater than 1000 nM.

For `Cc1nc(Oc2cc(C#N)ccc2-n2ncc3c2CNCC3)cc(N2CCCCC2)n1` [compound 747, 3-(2-methyl-6-piperidin-1-ylpyrimidin-4-yl)oxy-4-(4,5,6,7-tetrahydropyrazolo[3,4-c]pyridin-1-yl)benzonitrile], the IC50 was greater than 1000 nM.

Regarding `N#Cc1ccc(-c2ncc(CCN)cn2)c(Oc2cc(N3C4CCC3CC4)ncc2C#N)c1` [compound 748, 4-[2-[5-(2-aminoethyl)pyrimidin-2-yl]-5-cyanophenoxy]-6-(7-azabicyclo[2.2.1]heptan-7-yl)pyridine-3-carbomtrile], the pIC50 – broadly, the IC50 on a negative log10 scale, so that one unit is a factor of ten – was greater than 8.00.

For `N#Cc1ccc(-c2ncc(CN)cn2)c(Oc2cc(N3C4CCC3CC4)ncc2C#N)c1` [compound 749, 4-[2-[5-(aminomethyl)pyrimidin-2-yl]-5-cyanophenoxy]-6-(7-azabicyclo[2.2.1]heptan-7-yl)pyridine-3-carbonitrile], the pIC50 was 6.00 to 8.00.

On to `N#Cc1ccc(-c2ncc(CCN)cn2)c(Oc2ccc(N3CCCC3)nc2)c1` [compound 750, 4-[5-(2-aminoethyl)pyrimidin-2-yl]-3-(6-pyrrolidin-1-ylpyridin-3-yl)oxybenzonitrile], for which the IC50 was 10 to 1000 nM.
